Reference: doi:10.1101/2022.02.24.481826v2 (biorxiv, 2022)

Molecular target: T1, AMPK4 (Arabidopsis thaliana, UniProt O82514)
T1 sequence (O82514 2-246): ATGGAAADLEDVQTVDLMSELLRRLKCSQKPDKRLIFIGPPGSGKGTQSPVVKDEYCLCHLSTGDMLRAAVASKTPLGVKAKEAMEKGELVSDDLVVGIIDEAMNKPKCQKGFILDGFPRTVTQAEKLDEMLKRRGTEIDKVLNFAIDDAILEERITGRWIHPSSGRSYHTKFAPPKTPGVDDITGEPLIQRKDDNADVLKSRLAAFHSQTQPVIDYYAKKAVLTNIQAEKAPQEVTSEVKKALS
Assay: coupled pyruvate kinase / lactate dehydrogenase assay, […] nm
Format: biochemical
Conditions: 1 mM AMP, 1 mM ATP

Nc1ncnc2c1ncn2[C@@H]1O[C@H](COP(=O)(O)O)[C@@H](O)[C@H]1O [AMP]
coupled pyruvate kinase / lactate dehydrogenase assay, 340 nm: Analogous data for AMPK4
